In patent publication US6087493A, “Porphyrin compounds as telomerase inhibitors” (Regents of the University of Texas System, priority 1998, dated 2000):

Experiments:
PC3 = experiment: Cytotoxicity (MTT) PC3; type: cell-based, human; conditions: Homo sapiens, PC-3; PC3 (prostate), 4-7 days; read-out: IC 50 cytotoxicity
Procedure: (§1) The cells were cultured in the presence of the porphyrins incubator for 4-7 days and then treated with 3-(4,5-dimethylthiazol-2-yl)-2,5-diphenyl-tetrazolium bromide (MTT). Formazan concentration was quantitated by absorbance at 570 nm.

MDA-231 = experiment: Cytotoxicity (MTT) MDA-231; type: cell-based, human; conditions: Homo sapiens, MDA-MB-231; MDA-231 (breast), 4-7 days; read-out: IC 50 cytotoxicity
Procedure: as §1

Raji = experiment: Cytotoxicity (MTT) Raji; type: cell-based, human; conditions: Homo sapiens; Raji (lymphoma), 4-7 days; read-out: IC 50 cytotoxicity
Procedure: as §1

[1] = mice; cited from earlier work

## C[n+]1ccc(-c2c3nc(c(-c4cc[n+](C)cc4)c4ccc([nH]4)c(-c4cc[n+](C)cc4)c4nc(c(-c5cc[n+](C)cc5)c5ccc2[nH]5)C=C4)C=C3)cc1 [TMPyP4, 5,10,15,20-tetra-(N-methyl-4-pyridyl)porphine]
PC3
  IC50: 184 µM
MDA-231
  IC50: 44 µM
Raji
  IC50: 11.9 µM
[1]
  accumulation in tumor tissue: accumulation in tumor tissue in mice
